{"source": "ChEMBL document CHEMBL1201862", "about": "“PubChem BioAssay data set” (2004)", "key": {"[1]": {"target": "T1, Small ubiquitin-related modifier 1 (Homo sapiens, UniProt P63165)", "T1 sequence (P63165 whole entry)": "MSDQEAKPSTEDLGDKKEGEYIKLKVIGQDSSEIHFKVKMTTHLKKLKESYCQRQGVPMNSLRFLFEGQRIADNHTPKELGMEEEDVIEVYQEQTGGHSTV", "experiment": "SUMO1 protein interaction blockers, potency – biochemical, fluorescence polarization, uHTS hits, dose response (AID 624382)", "type": "functional", "conditions": "read-out: IC50_Mean"}, "[2]": {"target": "T1, Small ubiquitin-related modifier 1", "experiment": "SUMO1 protein-protein binding blockers, potency – biochemical, FRET, dose response (AID 624383)", "type": "functional", "conditions": "read-out: IC50_Mean"}, "[3]": {"target": "SWI/SNF-related matrix-associated actin-dependent regulator of chromatin subfamily A member 2 (Homo sapiens, UniProt P51531)", "sequence (P51531 whole entry)": "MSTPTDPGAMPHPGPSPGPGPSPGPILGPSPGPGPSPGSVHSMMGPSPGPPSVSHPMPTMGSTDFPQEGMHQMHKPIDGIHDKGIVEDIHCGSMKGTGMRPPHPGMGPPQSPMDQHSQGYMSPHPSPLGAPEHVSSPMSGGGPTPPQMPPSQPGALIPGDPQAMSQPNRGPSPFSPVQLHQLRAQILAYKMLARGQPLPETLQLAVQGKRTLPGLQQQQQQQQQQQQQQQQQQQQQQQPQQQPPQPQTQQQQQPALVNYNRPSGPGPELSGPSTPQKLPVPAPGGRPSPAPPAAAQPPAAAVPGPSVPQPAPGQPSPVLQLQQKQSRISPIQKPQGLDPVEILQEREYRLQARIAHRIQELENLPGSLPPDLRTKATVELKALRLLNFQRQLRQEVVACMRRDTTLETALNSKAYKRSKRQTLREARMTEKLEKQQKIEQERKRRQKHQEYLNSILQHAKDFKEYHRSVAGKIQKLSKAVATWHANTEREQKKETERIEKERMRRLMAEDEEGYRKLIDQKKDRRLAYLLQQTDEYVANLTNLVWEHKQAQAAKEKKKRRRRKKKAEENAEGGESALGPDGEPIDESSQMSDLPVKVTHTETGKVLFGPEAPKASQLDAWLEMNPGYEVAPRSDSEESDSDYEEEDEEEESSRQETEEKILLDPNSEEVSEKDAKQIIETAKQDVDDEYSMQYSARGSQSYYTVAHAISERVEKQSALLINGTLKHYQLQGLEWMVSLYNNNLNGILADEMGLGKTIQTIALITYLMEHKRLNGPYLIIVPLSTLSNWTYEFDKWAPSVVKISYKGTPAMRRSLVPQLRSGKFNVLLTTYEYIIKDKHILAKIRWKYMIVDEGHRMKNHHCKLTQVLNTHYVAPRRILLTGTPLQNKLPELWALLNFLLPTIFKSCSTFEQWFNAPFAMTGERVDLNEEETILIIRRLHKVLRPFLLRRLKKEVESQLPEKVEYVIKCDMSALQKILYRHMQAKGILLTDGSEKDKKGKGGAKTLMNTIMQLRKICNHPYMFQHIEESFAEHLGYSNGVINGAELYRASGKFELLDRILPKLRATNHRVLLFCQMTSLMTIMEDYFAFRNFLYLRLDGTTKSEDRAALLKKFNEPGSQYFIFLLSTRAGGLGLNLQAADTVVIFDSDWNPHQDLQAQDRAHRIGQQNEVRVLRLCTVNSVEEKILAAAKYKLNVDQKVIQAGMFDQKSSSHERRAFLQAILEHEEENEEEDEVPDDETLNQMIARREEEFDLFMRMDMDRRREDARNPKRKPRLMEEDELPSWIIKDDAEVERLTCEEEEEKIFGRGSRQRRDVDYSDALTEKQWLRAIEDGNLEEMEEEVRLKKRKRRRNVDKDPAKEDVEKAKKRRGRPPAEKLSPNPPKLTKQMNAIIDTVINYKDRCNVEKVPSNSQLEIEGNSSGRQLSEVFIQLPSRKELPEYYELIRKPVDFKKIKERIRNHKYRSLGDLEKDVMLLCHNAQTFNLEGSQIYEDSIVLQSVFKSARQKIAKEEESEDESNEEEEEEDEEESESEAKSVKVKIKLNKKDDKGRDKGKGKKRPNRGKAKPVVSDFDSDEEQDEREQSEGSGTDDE", "experiment": "Luminescence-based cell-based high throughput dose response assay to identify activators of the function of SWI/SNF related, matrix associated, actin dependent regulator of chromatin, subfamily a, member 2 (SMARCA2, BRM).", "type": "functional"}, "[4]": {"experiment": "Counterscreen for activators of the function of SWI/SNF related, matrix associated, actin dependent regulator of chromatin, subfamily a, member 2 (SMARCA2, BRM): Luminescence-based cell-based high throughput dose response assay to identify non-selective compounds using the VP16 reporter assay.", "type": "functional"}, "[5]": {"target": "T2, Sentrin-specific protease 8 (Homo sapiens, UniProt Q96LD8)", "T2 sequence (Q96LD8 whole entry)": "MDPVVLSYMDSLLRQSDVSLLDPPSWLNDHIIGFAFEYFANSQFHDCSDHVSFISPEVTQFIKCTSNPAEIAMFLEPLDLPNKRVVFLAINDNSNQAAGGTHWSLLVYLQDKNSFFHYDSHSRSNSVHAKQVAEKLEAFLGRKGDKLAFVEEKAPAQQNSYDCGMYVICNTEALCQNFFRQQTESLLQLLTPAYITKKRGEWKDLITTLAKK", "type": "functional"}, "[6]": {"target": "T2, Sentrin-specific protease 8", "type": "functional", "remark": "listed apart in the source"}, "[7]": {"target": "T3, Caspase-3 (Homo sapiens, UniProt P42574)", "T3 sequence (P42574 whole entry)": "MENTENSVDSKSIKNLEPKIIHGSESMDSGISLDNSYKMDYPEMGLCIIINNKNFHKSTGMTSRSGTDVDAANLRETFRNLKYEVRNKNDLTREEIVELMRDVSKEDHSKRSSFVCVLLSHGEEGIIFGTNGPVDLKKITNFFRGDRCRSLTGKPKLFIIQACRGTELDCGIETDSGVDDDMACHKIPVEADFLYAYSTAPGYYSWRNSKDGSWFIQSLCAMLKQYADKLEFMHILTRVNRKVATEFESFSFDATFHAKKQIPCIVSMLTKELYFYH", "experiment": "Dose-response confirmation of uHTS inhibitor hits of Sentrin-Specific Protease 8 in a Caspase-3 Fluorescence assay.", "type": "functional"}, "[8]": {"tested_on": "Cryptococcus neoformans", "experiment": "PubChem AID 686997", "type": "functional, organism-based"}, "[9]": {"tested_on": "HeLa", "experiment": "viability loss in HeLa cells – cell-based, ATP luminescence, cherry-pick samples, cytotoxicity control, dose response (AID 687004)", "type": "functional"}, "[10]": {"tested_on": "Cryptococcus neoformans", "experiment": "Cryptococcus growth inhibition by alamar blue – cell lysis, cherry-picks, replicate tests, mechanism study for C. neoformans antifungal project, dose response (AID 686999)", "type": "functional, organism-based"}, "[11]": {"tested_on": "HEK293", "experiment": "viability loss in HEK293T cells – cell-based, ATP luminescence, cherry-pick samples, cytotoxicity control, dose response (AID 687005);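 note: cells exposed to compound for 48 hours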", "type": "functional", "conditions": "Homo sapiens"}, "[12]": {"experiment": "HEK293 Cytotoxicity Assay Measured in Cell-Based System Using Plate Reader - 7071-01_Inhibitor_Dose_CherryPick_Activity_Set2.", "type": "functional"}, "[13]": {"experiment": "cytotoxicity in HEK293 background cells – cell-based, dry powder, set 2, counter-screen for EBV LMP1 inhibitor project, dose response (AID 624374)", "type": "functional"}, "[14]": {"target": "Paired box protein Pax-8 (Homo sapiens, UniProt Q06710)", "sequence (Q06710 whole entry)": "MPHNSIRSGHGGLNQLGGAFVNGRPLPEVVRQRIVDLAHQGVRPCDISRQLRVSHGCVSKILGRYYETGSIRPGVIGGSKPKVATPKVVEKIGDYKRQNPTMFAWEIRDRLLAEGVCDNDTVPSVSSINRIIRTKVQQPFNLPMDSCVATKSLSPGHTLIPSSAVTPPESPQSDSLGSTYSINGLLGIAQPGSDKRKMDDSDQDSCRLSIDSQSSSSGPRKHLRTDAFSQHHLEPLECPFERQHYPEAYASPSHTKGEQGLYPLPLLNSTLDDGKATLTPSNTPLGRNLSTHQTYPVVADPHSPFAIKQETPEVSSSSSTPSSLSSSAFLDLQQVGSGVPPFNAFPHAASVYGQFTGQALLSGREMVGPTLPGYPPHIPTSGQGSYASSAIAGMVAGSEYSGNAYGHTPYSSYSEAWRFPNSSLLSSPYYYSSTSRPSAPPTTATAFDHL", "experiment": "PAX8 transcriptional activity inhibition in RMG-I – RMG-I cells, luciferase, cherry-pick, dose response (AID 687027);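 note: luciferase reporter driven by Pax8 target thyroperoxidase promoter measured by SteadyGlo luminescence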", "type": "functional, cell-based"}}, "note": "Calls of active or inactive are those of the source.", "data": [{"smiles": "CCn1c(SCC(=O)NC(=O)NCc2ccco2)nc2sc(C)c(C)c2c1=O", "values": [{"measurement": "IC50", "setting": "[1]", "value": "> 66.6 µM (inactive)"}, {"measurement": "IC50", "setting": "[2]", "value": "21.9 µM (inactive)"}]}, {"smiles": "COc1cccc(-c2cnc3c(NC=O)cc(-c4ccc(N5CCN(C)CC5)cc4)cn23)c1", "values": [{"measurement": "EC50", "setting": "[3]", "value": "> 10.1 µM (inactive)"}, {"measurement": "EC50", "setting": "[4]", "value": "> 91.2 µM (inactive)"}]}, {"smiles": "O=C(NC1CCCCC1)C(c1ccnc2ccccc12)N1CCc2ccccc2C1", "note": "(centres undefined)", "values": [{"measurement": "IC50", "setting": "[5]", "value": "17.5 µM (active)"}, {"measurement": "IC50", "setting": "[6]", "value": "2.31 µM (active)"}, {"measurement": "IC50", "setting": "[7]", "value": "9.26 µM (active)"}]}, {"smiles": "COC(=O)C1=C(C)N(CC(C)C)C(=S)NC1c1ccc(-c2ccccc2)cc1", "note": "(centres undefined)", "values": [{"measurement": "AC50", "setting": "[8]", "value": "23.6 µM (active)"}, {"measurement": "AC50", "setting": "[8]; Cryptococcus neoformans", "value": "15.6 µM (active)"}, {"measurement": "AC50", "setting": "[9]", "value": "> 52 µM (inactive)"}, {"measurement": "AC50", "setting": "[9]; Homo sapiens", "value": "42 µM (active)"}, {"measurement": "AC50", "setting": "[10]", "value": "51.6 µM (active)"}, {"measurement": "AC50", "setting": "[11]", "value": "20.4 µM (active)"}, {"measurement": "AC50", "setting": "[12]", "value": "20.4 µM (active)"}]}, {"smiles": "O=C(Cc1ccccn1)NCC[C@@H]1CC[C@H](NC(=O)Nc2ccc(Cl)cc2)[C@H](CO)O1", "values": [{"measurement": "AbsAC35", "setting": "[13]", "value": 154.48, "unit": "µM"}]}, {"smiles": "CC[C@H](C)[C@@H]1NC(=O)CNC(=O)c2csc(n2)[C@H](C(C)(C)O)OC(=O)C(C)(C)[C@H](CCCC(C)(Cl)Cl)OC(=O)c2csc1n2", "note": "[LYNGBYABELLIN A]", "values": [{"measurement": "AC50", "setting": "[8]; Cryptococcus neoformans", "value": "2.72 µM (active)"}, {"measurement": "AC50", "setting": "[9]; Homo sapiens", "value": "< 0.195 µM (active)"}, {"measurement": "AC50", "setting": "[10]", "value": "2.1 µM (active)"}, {"measurement": "AC50", "setting": "[14]", "value": "< 0.26 µM (active)"}]}]}
